Tests used:
[1] = molecular target: BRAF kinase domain (residues 444 to 723, BRAF16mut) dimerization (Homo sapiens, UniProt P15056, A688R/F667E/I543A/I544S/I551K/K630S/K723G/L588N/L706S/L716E/P722S/Q562R/Q709R/S713E/Y673S); format: binding; details: 40 μM inhibitor, or 200 μM AMP-PNP / ADP with 200 μM MgCl2; Fig. 5e
[2] = molecular target: T1, PERK kinase domain dimerization (Mus musculus, UniProt Q9Z2B5, DEL661-875); experiment: Sedimentation velocity analytical ultracentrifugation of PERK kinase domain; format: binding, Murine; details: saturating concentrations; 40 μM inhibitor, 500 μM ADP with 2 mM MgCl2
T1 sequence (Q9Z2B5 with tags, fused parts or gaps DEL661-875): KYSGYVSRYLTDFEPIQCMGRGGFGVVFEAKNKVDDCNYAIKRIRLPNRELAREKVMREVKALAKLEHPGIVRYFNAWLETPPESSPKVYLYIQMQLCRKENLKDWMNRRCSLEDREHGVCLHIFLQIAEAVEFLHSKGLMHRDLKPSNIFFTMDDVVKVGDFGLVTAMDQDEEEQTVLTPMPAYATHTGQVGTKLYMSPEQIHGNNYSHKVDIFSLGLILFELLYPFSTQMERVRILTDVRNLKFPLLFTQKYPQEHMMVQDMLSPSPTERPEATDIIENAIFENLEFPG

CRAF homodimers = CRAF homodimers (Homo sapiens, UniProt P04049); experiment: BRET biosensor CRAF homodimers; format: cell-based; details: Fig. 2c
Sequence of CRAF homodimers (P04049 340-648): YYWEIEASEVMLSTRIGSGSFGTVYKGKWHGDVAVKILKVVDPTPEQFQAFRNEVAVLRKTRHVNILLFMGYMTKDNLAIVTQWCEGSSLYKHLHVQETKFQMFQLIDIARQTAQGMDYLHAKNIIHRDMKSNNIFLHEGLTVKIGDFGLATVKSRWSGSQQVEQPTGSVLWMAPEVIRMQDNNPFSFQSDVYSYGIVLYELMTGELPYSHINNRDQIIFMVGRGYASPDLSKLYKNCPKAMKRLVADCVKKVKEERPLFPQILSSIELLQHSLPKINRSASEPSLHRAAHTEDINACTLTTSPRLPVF
Sequence of CRAF homodimers (P04049 340-648): as above

BRAFKD F595R = BRAFKD F595R (Homo sapiens, UniProt P15056, F595R); experiment: BRET saturation curves, BRAF R spine mutant; format: cell-based; details: Fig. 6c
[3] = molecular target: BRAFKD/BRAFKD (RlucII-BRAFKD-CAAX / GFP10-BRAFKD-CAAX) (Homo sapiens, UniProt P15056); experiment: BRET titration curves, BRAFKD homodimerization biosensor; format: cell-based; details: Fig. 1c
[4] = test system: RAF family members (ARAF, BRAF, CRAF, KSR1, KSR2) kinase domain dimers; experiment: Panel of RAF dimerization BRET biosensors; format: cell-based; details: for RAFKD dimer induction profile across biosensor panel: dose-response, BRAFKD and CRAFKD acceptor probes, Fig. 2c; for induction of RAF dimerization in kinase inhibitor library screen: collection of 184 compounds, Fig. 5a
BRAFKD WT / BRAFKD R509H = BRAFKD WT / BRAFKD R509H (Homo sapiens, UniProt P15056, R509H); format: cell-based; details: 33 nM; Fig. 1e
BRAFKD WT / BRAFKD WT = BRAFKD WT / BRAFKD WT (Homo sapiens, UniProt P15056); format: cell-based; details: 33 nM; Fig. 1e
BRAF/KSR1 dimers = BRAF/KSR1 dimers (Homo sapiens, UniProt P15056+Q8IVT5); experiment: BRET biosensor BRAF/KSR1 dimers; format: cell-based; details: Fig. 2c
BRAF/BRAF dimers = BRAF/BRAF dimers (Homo sapiens, UniProt P15056); experiment: Co-immunoprecipitation of full-length BRAF/BRAF dimers; format: cell-based; details: 10 μM; Fig. 4e
CRAFKD / BRAFKD [5] = molecular target: T2, CRAFKD / BRAFKD (Homo sapiens, UniProt P04049+P15056); experiment: BRET dose-response, CAAX-boxed CRAFKD/BRAFKD biosensor; format: cell-based; details: 10 μM; Fig. 4b
BRAF/CRAF dimers = BRAF/CRAF dimers (Homo sapiens, UniProt P04049+P15056); experiment: Co-immunoprecipitation of full-length GFP-CRAF and Flag-BRAF; format: cell-based; details: SB202190 and SB203580 10 μM; Fig. 4d
ERK phosphorylation = ERK phosphorylation in RAF-expressing HEK293T cells; format: cell-based; details: 2 μM, Fig. 4f
CRAFKD / BRAFKD [6] = molecular target: T2, CRAFKD / BRAFKD; experiment: High-throughput chemical screen with CRAFKD/BRAFKD biosensor; format: cell-based; details: 10 μM screening concentration; Fig. 4a
KSR1KD / MEK1 = KSR1KD / MEK1 (Homo sapiens, UniProt Q8IVT5); experiment: BRET selectivity assay, KSR1KD/MEK1 pair; format: cell-based; details: 10 μM; Fig. 4b
Sequence of KSR1KD / MEK1 (Q8IVT5 602-921): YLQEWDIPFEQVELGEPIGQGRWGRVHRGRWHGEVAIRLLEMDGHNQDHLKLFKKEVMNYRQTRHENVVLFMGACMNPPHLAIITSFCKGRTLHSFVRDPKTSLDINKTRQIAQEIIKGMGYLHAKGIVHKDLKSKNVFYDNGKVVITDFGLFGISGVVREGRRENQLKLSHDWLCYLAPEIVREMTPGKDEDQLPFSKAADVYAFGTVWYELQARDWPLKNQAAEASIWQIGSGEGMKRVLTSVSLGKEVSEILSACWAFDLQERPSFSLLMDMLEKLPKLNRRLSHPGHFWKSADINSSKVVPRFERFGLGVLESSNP
Sequence of KSR1KD / MEK1 (Q02750 whole entry partner): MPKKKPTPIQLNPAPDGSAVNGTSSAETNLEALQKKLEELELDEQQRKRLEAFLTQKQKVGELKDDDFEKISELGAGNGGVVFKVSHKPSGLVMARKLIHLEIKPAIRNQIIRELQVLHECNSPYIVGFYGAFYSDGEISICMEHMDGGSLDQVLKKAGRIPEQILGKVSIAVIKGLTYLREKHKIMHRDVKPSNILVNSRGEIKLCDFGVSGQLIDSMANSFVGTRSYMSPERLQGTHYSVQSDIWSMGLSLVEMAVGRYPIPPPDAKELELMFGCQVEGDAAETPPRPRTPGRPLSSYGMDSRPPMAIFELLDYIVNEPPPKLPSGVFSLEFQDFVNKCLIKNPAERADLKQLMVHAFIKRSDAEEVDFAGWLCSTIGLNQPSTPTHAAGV

[7] = molecular target: BRAFKD T529M / BRAFKD T529M (Homo sapiens, UniProt P15056, T529M); experiment: BRET dose-response, BRAFKD T529M gatekeeper mutant homodimerization; format: cell-based; details: Fig. 4g
[8] = Solubility in aqueous solution; format: physicochemical

Nc1ncnc2c1ncn2[C@@H]1O[C@H](COP(=O)(O)OP(=O)(O)O)[C@@H](O)[C@H]1O [ADP]
effect on BRAF kinase domain dimerization relative to apo state [1]: inhibited dimer formation
effect on PERK kinase domain dimerization [2]: weakly promoted dimerization

Nc1ncnc2c1ncn2[C@@H]1O[C@H](COP(=O)(O)OP(=O)(O)NP(=O)(O)O)[C@@H](O)[C@H]1O [AMP-PNP]
effect on BRAF kinase domain dimerization relative to apo state [1]: inhibited dimer formation

Cc1ccc(NC(=O)c2cccc(C(C)(C)C#N)c2)cc1Nc1ccc2ncn(C)c(=O)c2c1 [AZ-628]
induction of CRAF homodimers (CRAF homodimers): strongly promoted
dimerization of BRAF R spine mutant (F595R), BRET saturation curves (BRAFKD F595R): promote dimerization
effect on BRET50 in titration experiments [3]: significantly reduced
RAFKD dimer induction profile across biosensor panel [4]: strong and broad inducers

Cc1nc(Nc2ncc(C(=O)Nc3c(C)cccc3Cl)s2)cc(N2CCN(CCO)CC2)n1 [Dasatinib]
induction of RAF dimerization in kinase inhibitor library screen [4]: significant inducers of RAF dimerization

OCCn1cc(-c2ccc3c(c2)CC/C3=N\O)c(-c2ccncc2)n1 [GDC-0879]
response of R509H mutant biosensor to drug (BRAFKD WT / BRAFKD R509H): insensitive
time at which BRET induction plateaued (BRAFKD WT / BRAFKD WT): ≤ 60 min
time at which activity (BRET induction) could first be detected (BRAFKD WT / BRAFKD WT): 5 min
induction of BRAF/KSR1 dimers (BRAF/KSR1 dimers): strongly induced
effect on BRET50 in titration experiments [3]: significantly reduced
RAFKD dimer induction profile across biosensor panel [4]: strong and broad inducers

Cn1cc(-c2ccc3c(c2)CCN3C(=O)Cc2cccc(C(F)(F)F)c2)c2c(N)ncnc21 [GSK2606414, 7-Methyl-5-(1-{[3-(trifluoromethyl)phenyl]acetyl}-2,3-dihydro-1H-indol-5-yl)-7H-p yrrolo[2,3-d]pyrimidin-4-amine]
effect on PERK kinase domain dimerization [2]: potently promotes

Cc1cn(-c2cc(NC(=O)c3ccc(C)c(Nc4nccc(-c5cccnc5)n4)c3)cc(C(F)(F)F)c2)cn1 [Nilotinib]
induction of RAF dimerization in kinase inhibitor library screen [4]: significant inducers of RAF dimerization

CCCS(=O)(=O)Nc1ccc(F)c(C(=O)c2c[nH]c3ncc(Cl)cc23)c1F [PLX4720]
RAFKD dimer induction profile across biosensor panel [4]: relatively weak RAFKD dimer inducers

Oc1ccc(-c2nc(-c3ccncc3)c(-c3ccc(F)cc3)[nH]2)cc1 [SB202190]
BRAF homodimerization by co-immunoprecipitation (BRAF/BRAF dimers): induced BRAF homodimerization
effect on BRAF kinase domain dimerization relative to apo state [1]: promoted dimerization
effect on CRAFKD/BRAFKD BRET signal (CRAFKD / BRAFKD [5]): induces
BRAF/CRAF dimerization by co-immunoprecipitation (BRAF/CRAF dimers): increased BRAF/CRAF dimerization
ERK activity in RAF transfected cells (ERK phosphorylation): stimulated ERK activity
rank among inducers of CRAFKD/BRAFKD dimerization in HTS (CRAFKD / BRAFKD [6]): most potent inducer
effect on BRET produced by the KSR1KD/MEK1 pair (KSR1KD / MEK1): does not alter
effect of T529M gatekeeper mutant on inhibitor-induced BRAFKD homodimerization [7]: reduces

C[S+]([O-])c1ccc(-c2nc(-c3ccncc3)c(-c3ccc(F)cc3)[nH]2)cc1 (centres unmarked) [SB203580]
ERK activity in RAF transfected cells (ERK phosphorylation): stimulated ERK activity

CNC(=O)c1cc(Oc2ccc(NC(=O)Nc3ccc(Cl)c(C(F)(F)F)c3)cc2)ccn1 [Sorafenib]
solubility in aqueous solution [8]: limited solubility
RAFKD dimer induction profile across biosensor panel [4]: relatively weak RAFKD dimer inducers

Cn1cc(-c2ccc3c(c2)CCN3C(=O)Cc2cc(F)cc(C(F)(F)F)c2)c2c(N)ncnc21 [close structural analog of GSK2606414, 5-(1-{[3-Fluoro-5-(trifluoromethyl)phenyl]acetyl}-2,3-dihydro-1H-indol-5-yl)-7-methyl-7H-pyrrolo[2,3-d]pyrimidin-4-amine]
effect on PERK kinase domain dimerization [2]: strongly promoted dimerization

Source: PMC4954776 (Nature chemical biology, 2013)
